Measured values published in paper PMC6132687, “Stem cells are the most sensitive screening tool to identify toxicity of GATA4-targeted novel small-molecule compounds” (Archives of Toxicology, 2018).
pIC50: −log10 of the molar value.

How the values were obtained:
[1] = tested on: hiPSCs; experiment: MTT assay in hiPSCs; format: cell-based, human; conditions: for pIC50: Homo sapiens, 24-h exposure, read-out: IC50 (hiPSC viability)
Procedure: The cells were exposed to the test compounds for 24 h and cytotoxicity was quantified with MTT and LDH assays as described previously (Talman et al. [2011]). For the determination of cell membrane integrity, 50 µl of medium from each well was transferred onto a new 96-well plate followed by addition of 50 µl of substrate solution containing 1.3 mM β-nicotinamide adenine dinucleotide, 660 µM iodonitrotetrazolium, 54 mM L(+)-lactic acid, 280 µM phenazine methosulphate and 0.2 M Tris–HCl (pH 8.0). After a 30-min incubation, the reaction was stopped by adding 50 µl of 1 M acetic acid to each well and absorbance was measured at 490 nm using Victor2 plate reader (PerkinElmer, Turku, Finland). Spontaneous LDH release was measured from untreated cells, maximal LDH release from cells lysed with 0.9% Triton X-100 and background absorbance was measured from wells without cells. After background extraction, cytotoxicity was calculated as follows: cytotoxicity (%) = [(sample − spontaneous LDH release)/(maximal LDH release − spontaneous LDH release)] × 100. For quantification of metabolic activity, 3-(4,5-dimethylthiazol-2-yl)-2,5-diphenyltetrazolium bromide (MTT) was added to the cells at a final concentration of 0.5 mg/ml followed by 2 h incubation in cell culture conditions. The medium was then aspirated and formazan crystals were solubilized in DMSO. Absorbance was measured at 550 nm and absorbance at 650 nm was subtracted as background. […]
Human pluripotent stem cells (hiPSCs): The iPS(IMR90)-4 line (Yu et al. 2007) was purchased from WiCell (Madison, Wisconsin, USA). The cells were cultured in Essential 8 ™ medium (E8) on 6-well plates coated with Matrigel® (1:50) and passaged 1:15 approximately every four days. The cells were dissociated using Versene®, resuspended in E8 containing 10 µM ROCK inhibitor (Y-27632) and seeded at 10,000 cells/well (cytotoxicity assays) or 5,000 cells/well (high-content imaging) in Matrigel®-coated 96-well plates. The cells were incubated overnight in standard conditions prior to compound addition. […]
(§1) 1640 without glucose with B-27 supplement in order to purify cardiomyocytes. From day 15 onwards the cells were maintained in RPMI 1640 supplemented with B-27 (RB+ins). Beating hiPSC-CMs were dissociated between days 15 and 22 by incubating them in cell dissociation solution containing 40% enzyme-free cell dissociation buffer, 40% RPMI 1640 and 20% trypsin-EDTA (final trypsin concentration 0.01%) for 7–8 min, whereafter the cells were collected and trypsin was inactivated in RB+ins supplemented with 10% FBS. After centrifugation the cells were suspended in RB+ins with 10% FBS containing 10 µM ROCK inhibitor and seeded at 15,000 cells/well (cytotoxicity assays) or 20,000 cells/well (high content analysis) in gelatin-coated 96-well plates. The cells were let to attach for 2 days at 37 °C in standard conditions, whereafter the compounds were added in RB+ins. In general, the differentiation yielded an almost pure (>95%) cardiomyocyte culture.
(§2) Syntheses and characterization of compounds
Materials and general procedures. All reagents were acquired from Sigma-Aldrich (Schnelldorf, Germany) and Enamine (Kiev, Ukraine), and were used without further purification. All reactions in anhydrous solvents were conducted in oven-dried glassware under anhydrous argon. Thin-layer chromatography (TLC) was performed using Silica Gel 60 F254 (Merck) and Silica Gel 60 NH2 F254s aluminium sheets (Merck), visualized by UV illumination and stained with ninhydrin in EtOH (1.5% w/v). Microwave reactions were performed with a Biotage Initiator+ Robot Eight microwave (Uppsala, Sweden). Column chromatography was performed with an automated high performance flash chromatography Biotage Sp4-system or with a Isolera Spektra One-system (Uppsala, Sweden) using a 0.1-mm path length flow cell UV-detector/recorder module (fixed wavelength 254 nm) for the […] or a variable UV-VIS (200-800 nm) photodiode array detector for the Isolera Spektra One- […]

[2] = tested on: mESC derivatives from day 5 embryoid bodies (D5EBs); experiment: MTT assay in D5EBs; format: cell-based, mouse; conditions: 24 h
Procedure: The cells were exposed to the test compounds for 24 h and cytotoxicity was quantified with MTT and LDH assays as described previously (Talman et al. [2011]). For the determination of cell membrane integrity, 50 µl of medium from each well was transferred onto a new 96-well plate followed by addition of 50 µl of substrate solution containing 1.3 mM β-nicotinamide adenine dinucleotide, 660 µM iodonitrotetrazolium, 54 mM L(+)-lactic acid, 280 µM phenazine methosulphate and 0.2 M Tris–HCl (pH 8.0). After a 30-min incubation, the reaction was stopped by adding 50 µl of 1 M acetic acid to each well and absorbance was measured at 490 nm using Victor2 plate reader (PerkinElmer, Turku, Finland). Spontaneous LDH release was measured from untreated cells, maximal LDH release from cells lysed with 0.9% Triton X-100 and background absorbance was measured from wells without cells. After background extraction, cytotoxicity was calculated as follows: cytotoxicity (%) = [(sample − spontaneous LDH release)/(maximal LDH release − spontaneous LDH release)] × 100. For quantification of metabolic activity, 3-(4,5-dimethylthiazol-2-yl)-2,5-diphenyltetrazolium bromide (MTT) was added to the cells at a final concentration of 0.5 mg/ml followed by 2 h incubation in cell culture conditions. The medium was then aspirated and formazan crystals were solubilized in DMSO. Absorbance was measured at 550 nm and absorbance at 650 nm was subtracted as background.
Mouse embryonic stem cells (mESCs), embryoid bodies (EBs), and primary mouse embryonic fibroblasts (MEFs) were used for toxicity experiments. E14 mESCs were cultured in feeder-free conditions on plates coated with 0.1% gelatin in DMEM with 15% FBS, GlutaMax, MEM non-essential amino acids, 2-mercaptoethanol, and leukemia inhibitory factor (LIF). For toxicity assays, the cells were dissociated with TrypLe and plated at 5,000 cells/well in gelatin-coated 96-well plates 24 hours prior to compound exposures. To induce differentiation of mESCs, cells were plated on day 0 in 20 µl hanging drops at 25,000 cells/ml in inverted V-bottom plates in DMEM with 20% FBS and with all above supplements except LIF. On day 2 medium was added to EBs, and the EBs were dissociated with TrypLe and plated at 5,000 cells/well in gelatin-coated 96-well plates on day 5 and exposed to test compounds 24 later. Primary MEFs were cultured on 0.1% gelatin-coated plates in DMEM with 10% […]
as §1, §2
Materials and general procedures. […]

| Structure (SMILES) | reduction in viability ([1]; hiPSCs, 24 h, 30 µM) | reduction in viability ([2]; 30 µM) | pIC50 [1] | sensitivity of cell type to compound (viability) ([1]; hiPSCs, 24 h) | sensitivity of cell type to compound (viability) [2] | reduction in cell viability ([1]; hiPSCs, 24 h, at ≥ 3 µM) | reduction in metabolic activity ([2]; at ≥ 10 µM) |
| --- | --- | --- | --- | --- | --- | --- | --- |
| CCN(CC)c1ccc(NC(=O)c2c(C)noc2-c2cc(C)on2)cc1 [3i-1047] | 38–45% | 38–45% | – | – | – | – | – |
| COc1ccc(-c2cc(N)nn2C(=O)c2c(-c3ccccc3)noc2C)cc1 [3i-1229] | – | – | 5.68 | sensitive | sensitive | – | – |
| CCC(=O)N(Cc1ccc(N(CC)CC)cc1)c1c(-c2ccccc2)noc1C [3i-1120] | – | – | 6.22 | sensitive | sensitive | – | – |
| CCN(CC)c1ccc(NC(=O)c2cc(C)oc2-c2ccccc2)cc1 [3i-1148] | – | – | 6.52 | sensitive | sensitive | – | – |
| CCN(CC)c1ccc(NC(=O)c2c(-c3ccccc3)noc2C)cc1 [3i-1000] | – | – | 5.84 | – | – | 93–94% | moderate, but not statistically significant |
